Data from patent publication US20170000749A1, “Methods for Treating Cognitive Disorders Using Inhibitors of Histone Deacetylase” (Forum Pharmaceuticals, Inc., priority 2008, published 2017).
Read-outs that look alike come from different tables or passages of the source.

How the values were obtained:
[1] = tested on: Drosophila Huntington's Disease model flies; experiment: In Vivo Drosophila Fly Assay for Treatment of Huntington's Disease (automated climbing behavioral assay); design: species or system Drosophila melanogaster; conditions: for Speed 1 to 7 (concentration) 30 uM / Speed 1 to 7 (concentration) 100 uM / Speed 1 to 7 (concentration) 300 uM: effect size of early speed (days 1-7) vs DMSO-carrier control; for Speed 8 to 10 (concentration) 30 uM / Speed 8 to 10 (concentration) 100 uM / Speed 8 to 10 (concentration) 300 uM: effect size of late speed (days 8-10) vs DMSO-carrier control
Text: The Drosophila Huntington's Disease assay used to screen compounds of the present disclosure followed that of WO 2007/002497, which is hereby incorporated by reference in its entirety.
Briefly, parental (model and driver) lines are maintained in sufficient quantities to provide virgins and males for assay crosses as well as perpetuating the lines. Disease model flies are maintained with the disease genes “silent”, functionally linked to a UAS enhancer element. The “driver” lines contain a GAL4 element under the control of a tissue-specific promoter. These are crossed together to generate the assay flies which have tissue-specific (i.e. CNS) expression of the disease gene(s).
Weekly assay crosses are set up with sufficient virgins and males to generate enough assay embryos for sorting. Approximately 50,000 males and 75,000 virgins are crossed in population cages. Embryos are collected for an eight hour window two days later. The embryos are then sorted onto 16 mm assay vials containing regular fly media and allowed to develop. Flies containing both the GAL4 driver element and the disease gene(s) are detected by the presence of GFP, a fluorescing protein. Approximately 10 assay flies eclose per vial, the optimal number for the behavioral assay. Once the flies eclose, they are transferred onto assay vials containing liquid Drosophila food. Similarly, control crosses are set up with virgins of the driver and males from a non-disease UAS line. Throughout fly production and the assay days, all flies are maintained at constant temperature and humidity, with preset light cycle, optimized for the particular lines and crosses.
Quality control (QC) for the parental lines is carried out weekly by collecting a sample of random male flies from each line. Single-fly PCR is carried out to ascertain the presence of the GAL4 or UAS element. If greater than 5% of the individuals lack the appropriate element, the assay cross is aborted. A second form of QC is also carried out to ensure that the GAL4 element is able to drive expression of a transgene. A sample of individual “driver” virgins is crossed to UAS-GFP males. Their progeny are visually checked for GFP expression in the appropriate tissues. Lack of GFP in greater than 4% of the crosses results in the assay being aborted.
Test compounds are weighed out and dissolved in DMSO at stock concentrations 100× what is desired in the assay and arrayed into 96-well master plates, including wells for DMSO-only controls and the positive control(s). A single well is reserved for a colored dye used to ensure proper orientation of compounds during drug dispensing and fly transfer. Replicate daughter plates for each day of the assay are stamped out. The plates are bar coded and stored at −20 C until used for the assay.
For a particular assay day, the plates are thawed and a robotic liquid handler is used to dilute the test compound into the liquid fly food and dispense the mixture into the assay vials. For Huntington Disease (HD) models, eight replicates per single treatment (one compound, one concentration) are dispensed. Fresh test compound treated media is made daily during an assay.
On the day the assay flies eclose (emerge from […]; assay Day 0) they are transferred to the test compound treated vials. On assay Day 1, the flies are transferred onto clean test compound treated vials one hour before assay time. They are then placed in the assay machine to acclimate to the appropriate climate conditions.
The assay machine is an environmentally-enclosed and controlled robot that can maintain user-set temperature and humidity. The machine can hold up to sixteen 96-vial racks in four quadrants, for a total of 1536 vials. There are four camera stations, which hold four vials each and a CCD camera for movie capture. […]

[2] = target: one or more of HDAC-1, HDAC-2, HDAC-3, HDAC-4, HDAC-5, HDAC-6, HDAC-7, HDAC-8, HDAC-9, HDAC-10 and HDAC-11; experiment: Inhibition of Histone Deacetylase Enzymatic Activity (Boc-Lys(Ac)-AMC substrate, Fluor-de-Lys developer); type: biochemical; conditions: read-out: HDAC Inhibition (IC50 μM) HDAC Enzyme
Description: The following protocol is used to assay the compounds of the disclosure.
The mixture is pre-incubated for 5 minutes at room temperature. The reaction is started by bringing the temperature to 37° C. and adding 16 μl substrate. Total reaction volume is 50 μl.
In the Tables 8, 9 and 10, A≦0.05 μM; 0.05 μM<B≦0.1 μM; 0.1 μM<C≦1 μM; and 1 μM<D≦10 μM.

[3] = tested on: HDAC activity in primary mouse cortical cultures; experiment: Whole-Cell Histone Deacetylase (HDAC) Inhibition Assay in Primary Mouse Cortical Cultures; type: cell-based; conditions: whole-cell (WC), mouse cortical neurons, read-out: HDAC Inhibition (IC50 μM) WC mouse cortical neurons
Method in brief: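 Primary neocortical neurons from E17 Balb/C mouse embryos were plated at 50000 cells/well and treated at DIV9 with ten-point DMSO dilutions for 16-18 h at 37° C, in triplicate. BOC-Lys(Ac)-AMC substrate was then added for 1 h. Fluor de Lys developer containing 1 uM TSA produced a fluorophore, which was read.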

IC50 ([2]; Table 9) [µM] | IC50 ([3]; Table 9) [µM] | IC50 ([2]; Table 10) [µM] | IC50 ([3]; Table 10) [µM] | Compound | Speed 1 to 7 (concentration) 30 uM [1] | Speed 1 to 7 (concentration) 100 uM [1] | Speed 1 to 7 (concentration) 300 uM [1] | Speed 8 to 10 (concentration) 30 uM [1] | Speed 8 to 10 (concentration) 100 uM [1] | Speed 8 to 10 (concentration) 300 uM [1]
 |  |  |  | O=C(NO)c1cnc(N2CC3CC2CN3c2cccc(C(F)(F)F)c2)nc1 (stereo not drawn) | 0.02 | 0.48 | 0.506 | −0.14 | 0.3 | −0.112
 |  |  |  | O=C(NO)c1cnc(N2CC3CC2CN3c2cccc(OC(F)(F)F)c2)nc1 (stereo not drawn) | 0.05 | −0.01 | 0.68 | 0.15 | 0.16 | 0.35
 |  |  |  | O=C(NO)c1cnc(N2CC3CC2CN3c2ccc3c(c2)OC(F)(F)O3)nc1 (stereo not drawn) | 0.28 | 0.64 | 0.66 | 0.22 | 0.46 | 0.58
 |  |  |  | O=C(NO)c1cnc(N2CC3CC2CN3c2cccc(SC(F)(F)F)c2)nc1 (stereo not drawn) | 0.63 | 0.38 | 0.03 | 0.28 | 0.02 | −0.29
 |  |  |  | O=C(NO)c1cnc(N2CC3CC2CN3c2cc(C(F)(F)F)ccn2)nc1 (stereo not drawn) | 0.468 | 0.82 | 0.3 | 0.087 | 0.82 | 0.54
 |  |  |  | O=C(NO)c1cnc(N2CC3CC2CN3c2cccc(C(F)(F)F)n2)nc1 (stereo not drawn) | 0.781 | 0.549 | 0.411 | 0.291 | 0.376 | 0.471
 |  |  |  | O=C(NO)c1cnc(N2CC3CC2CN3c2cccc3nonc23)nc1 (stereo not drawn) |  | 0.84 | 0.68 |  | 0.26 | 0.5
 |  |  |  | Cc1ccc(N2CC3CC2CN3c2ncc(C(=O)NO)cn2)cc1 (stereo not drawn) | −0.007 | 0.046 | 0.829 | −0.134 | −0.369 | −0.107
 |  |  |  | CC(C)OC(=O)N1CC2CC1CN2c1ncc(C(=O)NO)cn1 (stereo not drawn) | 0.495 | 0.33 | −0.469 | 0.338 | 0.368 | 0.512
 |  |  |  | Cc1cccc(N2CC3CC2CN3c2ncc(C(=O)NO)cn2)c1 (stereo not drawn) | 0.493 | 0.588 | 0.412 | 0.036 | 0.359 | 0.439
0.1 to 1 | 5 to 15 |  |  | O=C(NO)c1cnc(N2C[C@@H]3C[C@H]2CN3c2cccc(C(F)(F)F)c2)cn1 [N-hydroxy-5-((1S,4S)-5-(3-(trifluoromethyl)phenyl)-2,5-diazabicyclo[2.2.1]heptan-2-yl)pyrazine-2-carboxamide] |  |  |  |  |  | 
< 0.05 | < 1 |  |  | Cc1ccc(N2CC3CC2CN3c2ccc(C(=O)NO)cn2)cc1 (stereo not drawn) [N-hydroxy-6-(5-p-tolyl-2,5-diazabicyclo[2.2.1]heptan-2-yl)nicotinamide] |  |  |  |  |  | 
 |  | < 0.05 | < 1 | O=C(CCCCCN1C(=O)c2ccccc2Oc2ccccc21)NO [N-hydroxy-6-(11-oxodibenzo[b,f][1,4]oxazepin-10(11H)-yl)hexanamide] |  |  |  |  |  | 
0.1 to 1 | 5 to 15 |  |  | O=C(NO)c1ccc(N2C[C@@H]3C[C@H]2CN3c2cccc(C(F)(F)F)c2)nn1 [N-hydroxy-6-((1S,4S)-5-(3-(trifluoromethyl)phenyl)-2,5-diazabicyclo[2.2.1]heptan-2-yl)pyridazine-3-carboxamide] |  |  |  |  |  | 
 |  | < 0.05 | < 1 | O=C(CCCCCCn1c(=O)c2ccccc2c2ccccc21)NO [N-hydroxy-7-(6-oxophenanthridin-5(6H)-yl)heptanamide] |  |  |  |  |  | 
 |  | < 0.05 | < 1 | O=C(CCCCCCN1C(=O)c2ccccc2Oc2ccccc21)NO [N-hydroxy-7-(11-oxodibenzo[b,f][1,4]oxazepin-10(11H)-yl)heptanamide] |  |  |  |  |  | 
 |  | < 0.05 | < 1 | O=C(CCCCCCN1C(=O)c2ccccc2Sc2ccccc21)NO [N-hydroxy-7-(11-oxodibenzo[b,f][1,4]thiazepin-10(11H)-yl)heptanamide] |  |  |  |  |  | 
 |  | < 0.05 | 5 to 15 | O=C(CCCCCCOc1nc2ccccc2c2ccccc12)NO [N-hydroxy-7-(phenanthridin-6-yloxy)heptanamide] |  |  |  |  |  | 
 |  | 0.05 to 0.1 | 1 to 5 | O=C(CCCCCCCN1C(=O)c2ccccc2Oc2ccccc21)NO [N-hydroxy-8-(11-oxodibenzo[b,f][1,4]oxazepin-10(11H)-yl)octanamide] |  |  |  |  |  | 
 |  | 0.05 to 0.1 | 1 to 5 | O=C(NO)c1cnc(N2CCCN(C(=O)OCc3ccccc3)CC2)nc1 [benzyl 4-(5-(hydroxycarbamoyl)pyrimidin-2-yl)-1,4-diazepane-1-carboxylate] |  |  |  |  |  | 
 |  |  |  | O=C(NO)c1ccc(C2=Nc3ccccc3Oc3ccc(F)cc32)cc1 [drawing 821] | 0.118 | −0.004 | 0.444 | −0.108 | 0.139 | 0.47
